# Publication PMC4467398, “Preclinical antitumor activity of ST7612AA1: a new oral thiol-based histone deacetylase (HDAC) inhibitor” (Oncotarget, 2014)
# Test system: DOHH2 and TMD8 DLBCL cells
# Test: Gene expression profiling (HumanHT-12 v4 BeadChip, limma), ST7612AA1 300 nM 8 hrs vs DMSO
# Format: cell-based, human
# Conditions: 300 nM 8 hrs vs DMSO
structure (smiles),measurement,value
CC(=O)SCCCCC[C@H](NC(=O)[C@H]1CCC(=O)N1)C(=O)Nc1ccccc1 [ST7612AA1],log ratio ESAM (probe ILMN_1668092),7.54E-01
same,log ratio EVI2A (ILMN_1733579),-1.21E+00
same,log ratio EXOSC8 (ILMN_1756162),-8.59E-01
same,log ratio EXTL2 (ILMN_2388425),6.00E-01
same,log ratio F11R (probe ILMN_2342033),8.81E-01
same,log ratio FAIM (ILMN_1690101),-1.08E+00
same,log ratio FAIM (ILMN_2351548),-9.70E-01
same,log ratio FAM49A (ILMN_1794038),6.23E-01
same,log ratio FAM65A (probe ILMN_1680037),7.70E-01
same,log ratio FAM108A2 (ILMN_3178529),6.40E-01
same,log ratio FAM110A (ILMN_2323944),6.14E-01
same,log ratio FAM116B (probe ILMN_1659029),7.74E-01
same,log ratio FAM120B (probe ILMN_1679641),7.62E-01
same,log ratio FAM136A (ILMN_1655307),-1.26E+00
same,log ratio FAM136B (ILMN_3241756),-7.94E-01
same,log ratio FAM149B1 (probe ILMN_3245452),7.21E-01
same,log ratio FAM160B1 (ILMN_3231638),-6.11E-01
same,log ratio FAM164A (ILMN_1789558),6.20E-01
same,log ratio FAM167A (probe ILMN_3248511),7.13E-01
same,log ratio FBXO15 (ILMN_1755281),6.57E-01
same,log ratio FBXO18 (probe ILMN_1729430),7.97E-01
same,log ratio FCGRT (probe ILMN_1705302),6.92E-01
same,log ratio FCHSD2 (ILMN_1815734),-6.17E-01
same,log ratio FERMT3 (ILMN_2366330),-1.23E+00
same,log ratio FGD2 (probe ILMN_2115005),7.14E-01
same,log ratio FGF9 (probe ILMN_1762531),7.84E-01
same,log ratio FHL1 (probe ILMN_1805842),7.76E-01
same,log ratio FKBP11 (ILMN_1787345),-9.71E-01
same,log ratio FLJ22795 (probe ILMN_2150802),8.56E-01
same,log ratio FNBP1 (ILMN_1797342),6.67E-01
same,log ratio FOXC1 (probe ILMN_1738401),8.63E-01
same,log ratio FOXO1 (probe ILMN_1738816),8.61E-01
same,log ratio FOXO4 (probe ILMN_1712095),6.93E-01
same,log ratio FSD1 (probe ILMN_1813490),7.25E-01
same,log ratio FUCA1 (probe ILMN_1752728),8.57E-01
same,log ratio FVT1 (ILMN_2154052),6.36E-01
same,log ratio FXYD5 (ILMN_2309848),6.27E-01
same,log ratio G6PD (probe ILMN_1697559),6.93E-01
same,log ratio GABARAPL2 (probe ILMN_1796458),7.62E-01
same,log ratio GAMT (probe ILMN_1756469),8.74E-01
same,log ratio GAPT (ILMN_1675191),-1.10E+00
same,log ratio GAPT (ILMN_3242271),-1.08E+00
same,log ratio GAR1 (ILMN_2412549),-9.54E-01
same,log ratio GAR1 (ILMN_3263329),-9.36E-01
same,log ratio GATM (probe ILMN_1729180),7.75E-01
same,log ratio GATS (ILMN_1699631),6.00E-01
same,log ratio GBE1 (ILMN_1789702),-8.91E-01
same,log ratio GCDH (ILMN_2296843),6.56E-01
same,log ratio GCH1 (probe ILMN_1812759),7.11E-01
same,log ratio GINS3 (ILMN_1754272),-8.17E-01
same,log ratio GM2A (ILMN_2221046),5.90E-01
same,log ratio GMEB2 (ILMN_1683204),-5.99E-01
same,log ratio GNG11 (ILMN_1782419),6.02E-01
same,log ratio GOLGB1 (probe ILMN_1747935),7.13E-01
same,log ratio GPATCH4 (ILMN_2383305),-1.16E+00
same,log ratio GPATCH4 (ILMN_2383306),-1.12E+00
same,log ratio GPER (ILMN_1795298),-1.70E+00
same,log ratio GPER (ILMN_2384056),-1.82E+00
same,log ratio GPT2 (probe ILMN_1684158),8.12E-01
same,log ratio GPX4 (ILMN_1734353),6.05E-01
same,log ratio GPX7 (ILMN_1726030),-1.08E+00
same,log ratio GRB2 (ILMN_1748797),6.01E-01
same,log ratio GRN (probe ILMN_1724250),8.24E-01
same,log ratio GRWD1 (ILMN_1742166),-6.02E-01
same,log ratio GSDMB (ILMN_2347193),6.61E-01
same,log ratio GSTO1 (ILMN_2227573),-6.01E-01
same,log ratio GTF2B (ILMN_1737857),6.21E-01
same,log ratio GTF2I (ILMN_1673917),-1.01E+00
same,log ratio GTF2IRD2B (ILMN_1680501),-1.15E+00
same,log ratio GTF3C2 (ILMN_1746457),-7.85E-01
same,log ratio GTF3C6 (ILMN_1691578),-1.19E+00
same,log ratio GTPBP6 (ILMN_1776080),-8.00E-01
same,log ratio HABP4 (ILMN_1792384),5.90E-01
same,log ratio HABP4 (probe ILMN_2107991),7.82E-01
same,log ratio HAGH (probe ILMN_1772731),8.84E-01
same,log ratio HCFC1 (ILMN_1732705),-1.50E+00
same,log ratio HDDC2 (ILMN_1753745),-8.45E-01
same,log ratio HDGF (ILMN_1765621),-8.47E-01
same,log ratio HERC1 (probe ILMN_1786211),7.40E-01
same,log ratio HERC6 (ILMN_1654639),-6.08E-01
same,log ratio HERPUD1 (probe ILMN_2374159),8.50E-01
same,log ratio HEY1 (probe ILMN_1788203),8.91E-01
same,log ratio HEY2 (probe ILMN_1682034),7.56E-01
same,log ratio HIST1H1C (probe ILMN_1757406),8.24E-01
same,log ratio HIST2H2AA3 (probe ILMN_2144426),8.03E-01
same,log ratio HK2 (ILMN_1723486),-1.09E+00
same,log ratio HLA-DOA (ILMN_1659075),6.55E-01
same,log ratio HLA-DPA1 (probe ILMN_1772218),8.12E-01
same,log ratio HLA-DQA1 (probe ILMN_1808405),8.25E-01
same,log ratio HLA-DRB4 (probe ILMN_1752592),7.27E-01
same,log ratio HLA-DRB6 (ILMN_2066066),5.94E-01
same,log ratio HLA-E (probe ILMN_1765258),8.07E-01
same,log ratio HLTF (ILMN_1798588),6.54E-01
same,log ratio HLTF (probe ILMN_1673820),7.48E-01
same,log ratio HNRNPR (ILMN_3177285),-5.97E-01
same,log ratio HNRPH3 (ILMN_1654920),-7.98E-01
same,log ratio HNRPLL (ILMN_1791575),6.20E-01
same,log ratio HOOK2 (probe ILMN_1682147),7.36E-01
same,log ratio HPSE (ILMN_1779547),5.94E-01
same,log ratio HSD17B8 (ILMN_1715324),6.72E-01
same,log ratio HSPA1B (probe ILMN_1660436),7.16E-01
same,log ratio HSPC111 (ILMN_1704055),-1.16E+00
same,log ratio ID1 (probe ILMN_1664861),7.75E-01
same,log ratio IFFO1 (probe ILMN_2348268),8.07E-01
same,log ratio IFI16 (ILMN_1710937),-9.06E-01
same,log ratio IFI35 (ILMN_1745374),-8.00E-01
same,log ratio IFRD2 (ILMN_1742031),-7.99E-01
same,log ratio IGSF3 (probe ILMN_1704353),8.50E-01
same,log ratio INTS10 (ILMN_1679483),-8.21E-01
same,log ratio IRAK1 (ILMN_2379130),-1.37E+00
same,log ratio IRAK2 (ILMN_1745964),6.17E-01
same,log ratio ISG20L1 (ILMN_1814282),-8.55E-01
same,log ratio ISOC2 (ILMN_1769158),-9.83E-01
same,log ratio ITFG2 (ILMN_1701244),-8.71E-01
same,log ratio ITFG3 (ILMN_1810055),6.64E-01
same,log ratio ITGA4 (ILMN_1747052),-6.00E-01
same,log ratio ITGB1 (ILMN_1723467),6.32E-01
same,log ratio ITGB1 (ILMN_2383934),6.80E-01
same,log ratio ITGB1 (probe ILMN_1714820),7.06E-01
same,log ratio ITPKA (probe ILMN_1776516),7.10E-01
same,log ratio JAK1 (probe ILMN_1793384),7.91E-01
same,log ratio KAT2A (ILMN_1782247),-6.02E-01
same,log ratio KBTBD2 (ILMN_1784540),-6.12E-01
same,log ratio KEAP1 (ILMN_2410771),-8.88E-01
same,log ratio KEAP1 (ILMN_2410772),-9.23E-01
same,log ratio KIAA0020 (ILMN_1665483),-7.91E-01
same,log ratio KIAA0368 (ILMN_1847822),-1.24E+00
same,log ratio KIAA1602 (ILMN_1763640),6.30E-01
same,log ratio KIF3B (ILMN_1702279),6.21E-01
same,log ratio KIFC2 (ILMN_1803018),6.72E-01
same,log ratio KLF9 (ILMN_1778523),6.77E-01
same,log ratio KLHDC5 (ILMN_1727134),-1.09E+00
same,log ratio KLHL5 (probe ILMN_1706687),8.05E-01
same,log ratio KLRAQ1 (probe ILMN_3271092),7.11E-01
same,log ratio KPNB1 (ILMN_1703949),-1.01E+00
same,log ratio L3MBTL2 (ILMN_3307786),-8.52E-01
same,log ratio LAMC1 (ILMN_1810852),6.63E-01
same,log ratio LANCL2 (ILMN_1708009),-8.15E-01
same,log ratio LARP1B (ILMN_1733390),-7.84E-01
same,log ratio LASS2 (ILMN_1726108),-7.85E-01
same,log ratio LASS2 (ILMN_2400500),-9.26E-01
same,log ratio LCMT1 (probe ILMN_1688452),7.21E-01
same,log ratio LCMT1 (probe ILMN_2336186),7.52E-01
same,log ratio LIN9 (ILMN_2137084),-6.10E-01
same,log ratio LMNA (probe ILMN_1737394),7.98E-01
same,log ratio LOC151162 (probe ILMN_3238058),7.72E-01
same,log ratio LOC205251 (ILMN_1693685),-6.17E-01
same,log ratio LOC253039 (probe ILMN_3236498),8.10E-01
same,log ratio LOC283683 (probe ILMN_1659327),8.30E-01
same,log ratio LOC285176 (ILMN_1694327),-5.99E-01
